# In US4042683A, “Rifamycins P, Q and U” (Gruppo Lepetit S.p.A., priority 1974, dated 1977):
# Where two headings read alike, the source gives them in different places.
# How the values were obtained:
# Staphylococcus aureus = assay: experiments on mice injected with Staphylococcus aureus; type: in vivo
# Text: The novel compounds are active also in the laboratory animals injected with Staphylococcus aureus, Escherichia coli. The following table reports the results of representative experiments on mice in comparison with a known natural rifamycin, i.e. rifamycin SV.
# [1] = system: Pseudomonas aeruginosa ATCC 10145; assay: in vitro activity spectrum, minimal inhibition concentration, Pseudomonas aeruginosa ATCC 10145; type: cell-based
# Text: (§1) | Minimal inhibiton concentration (μg/ml)
# [2] = system: Proteus vulgaris X 19 H ATCC 881; assay: in vitro activity spectrum, minimal inhibition concentration, Proteus vulgaris X 19 H ATCC 881; type: cell-based
# Text: as §1
# [3] = system: Escherichia coli ATCC 10536; assay: in vitro activity spectrum, minimal inhibition concentration, Escherichia coli ATCC 10536; type: cell-based
# Text: as §1
# [4] = system: Staphylococcus aureus Tour rifampicin-resistant; assay: in vitro activity spectrum, minimal inhibition concentration, Staphylococcus aureus Tour rifampicin-resistant
# [5] = system: Mycobacterium tub. H37Rv ATCC 9360; assay: in vitro activity spectrum, minimal inhibition concentration, Mycobacterium tub. H37Rv ATCC 9360; type: cell-based
# Text: as §1
# [6] = system: Diplococcus pneumoniae UC 41; assay: in vitro activity spectrum, minimal inhibition concentration, Diplococcus pneumoniae UC 41; type: cell-based
# Text: as §1
# [7] = system: Klebsiella pneumoniae ATCC 10031; assay: in vitro activity spectrum, minimal inhibition concentration, Klebsiella pneumoniae ATCC 10031; type: cell-based
# Text: as §1
# [8] = system: Staphylococcus aureus Tour; assay: in vitro activity spectrum, minimal inhibition concentration, Staphylococcus aureus Tour; type: cell-based
# Text: as §1
# [9] = system: Streptococcus hemolyticus C 203; assay: in vitro activity spectrum, minimal inhibition concentration, Streptococcus hemolyticus C 203; type: cell-based
# Text: as §1
# [10] = system: Staphylococcus aureus ATCC 6538; assay: in vitro activity spectrum, minimal inhibition concentration, Staphylococcus aureus ATCC 6538; type: cell-based; settings: for MIC: Staphylococcus aureus, read-out: Minimal inhibiton concentration
# Text: as §1
# [11] = system: Streptococcus faecalis ATCC 10541; assay: in vitro activity spectrum, minimal inhibition concentration, Streptococcus faecalis ATCC 10541; type: cell-based
# Text: as §1
# Bacillus Subtilis = assay: agar disc inhibition of growth of Bacillus subtilis; type: cell-based; settings: Penassay agar pH 7.2, disc of agar carrying a single colony
# Protocol: A suspension of spores of Streptomyces mediterranei ATCC 13685 was treated with N-methyl-N'-nitro-N-nitrosoguanidine at 1 mg/ml in a pH 9.0 tris(hydroxymethyl)aminomethane buffer for 60 minutes at 28° C. The mutagen-treated spores were then washed and plated onto Petri dishes containing Bennett agar. After 14 days incubation at 28° C., the surviving colonies were picked off and examined for their ability to inhibit the growth of Bacillus Subtilis in the following manner: a disc of agar (diameter 4-8 mm) carrying a single colony was transferred onto a Petri disch containing […] agar at pH 7.2 previously seeded at 2% (v/v) with Bacillus Subtilis. […] Three strains were isolated in this way and were originally given our internal code D-2, MM18-6 and M-36. Samples of these microorganisms were deposited with the ATCC where they are identified respectively as Nocardia mediterranea ATCC 31064 Nocardia mediterranea ATCC 31065 and Nocardia mediterranea ATCC 31066.
smiles,measurement,setting,value
CO[C@H]1/C=C/O[C@@]2(C)Oc3c(C)c(O)c4c(O)c(cc(O)c4c3C2=O)NC(=O)/C(C)=C\C=C\[C@H](C)[C@H](O)[C@@H](C)[C@@H](O)[C@@H](C)[C@H](OC(C)=O)[C@@H]1C [rifamycin SV],ED50,"Staphylococcus aureus; po, o.s., read-out: ED50",74 mg/kg
same,ED50,"Staphylococcus aureus; sc, read-out: ED50",17 mg/kg
COC1/C=C\OC2(C)Oc3c(C)c(O)c4c(O)c(c5sc(CO)nc5c4c3C2=O)NC(=O)/C(C)=C/C=C/C(C)C(O)C(C)C(O)C(C)C(OC(C)=O)C1C (stereo not drawn) [Rifamycin Q],Minimal inhibiton concentration,[1],50 µg/mL
same,Minimal inhibiton concentration,[2],12.5 µg/mL
same,Minimal inhibiton concentration,[3],12.5 µg/mL
same,Minimal inhibiton concentration,[4]; Staphylococcus aureus Tour rifampicin-resistant,> 100 µg/mL
same,Minimal inhibiton concentration,[5],2.5 µg/mL
same,Minimal inhibiton concentration,[6],0.039 µg/mL
same,Minimal inhibiton concentration,[7],50 µg/mL
same,Minimal inhibiton concentration,[8],0.06 µg/mL
same,Minimal inhibiton concentration,[9],0.019 µg/mL
same,Minimal inhibiton concentration,[10]; Staphylococcus aureus ATCC 6538,0.039 µg/mL
same,Minimal inhibiton concentration,[10]; Staphylococcus aureus ATCC 6538 (20% bovine serum),0.078 µg/mL
same,Minimal inhibiton concentration,[11],0.312 µg/mL
same,ED50,Staphylococcus aureus; s.c.,8 mg/kg
COC1C=COC2(C)Oc3c(C)c(O)c4c(O)c(cc(OCC(=O)O)c4c3C2=O)NC(=O)C(C)=CC=CC(C)C(O)C(C)C(O)C(C)C(OC(C)=O)C1C (stereo not drawn) [rifamycin B],inhibition of the growth of Bacillus subtilis,Bacillus Subtilis,practically inactive
COC1C=COC2(C)Oc3c(C)c(O)c4c(c3C2=O)C(=O)C=C(NC(=O)C(CO)=CC=CC(C)C(O)C(C)C(O)C(C)C(OC(C)=O)C1C)C4=O (stereo not drawn) [Rifamycin R],MIC,"[1]; ATCC10145, read-out: Minimal inhibiton concentration",100 µg/mL
same,MIC,"[2]; ATCC881, read-out: Minimal inhibiton concentration",12.5 µg/mL
same,MIC,"[3]; ATCC10536, read-out: Minimal inhibiton concentration",50 µg/mL
same,MIC,"[4]; Staphylococcus aureus, read-out: Minimal inhibiton concentration",100 µg/mL
same,MIC,"[5]; Mycobacterium tuberculosis, read-out: Minimal inhibiton concentration",0.1 µg/mL
same,MIC,"[6]; Streptococcus pneumoniae, UC41, read-out: Minimal inhibiton concentration",0.00625 µg/mL
same,MIC,[8]; read-out: Minimal inhibiton concentration,0.00235 µg/mL
same,MIC,"[9]; Streptococcus pyogenes, C203, read-out: Minimal inhibiton concentration",0.00312 µg/mL
same,MIC,"[10]; ATCC6538, Staphylococcus aureus ATCC 6538 (20% bovine serum)",0.0047 µg/mL
same,MIC,"[10]; ATCC6538, Staphylococcus aureus ATCC 6538",0.019 µg/mL
same,MIC,"[11]; Enterococcus faecalis, ATCC10541, read-out: Minimal inhibiton concentration",0.19 µg/mL
